# Test results: patent publication US9150566B2, “2-(1,2,3-triazol-2-yl)benzamide and 3-(1,2,3-triazol-2-YL)picolinamide derivatives as orexin receptor antagonists” (ACTELION PHARMACEUTICALS LTD., priority 2011, dated 2015)
# Like-named read-outs stand apart in the source and are kept apart here.
# Columns and labels:
# CYP3A4 = CYP3A4 (Homo sapiens (Human), UniProt P08684); experiment: CYP3A4 inhibition assay (human liver microsomes, testosterone 6β-hydroxylation); conditions: read-out: CYP3A4 IC50, 40 μM testosterone
# human orexin-1 receptor = human orexin-1 receptor (Homo sapiens (Human), UniProt O43613); experiment: In vitro intracellular calcium measurements (FLIPR), antagonistic activity on orexin-1 receptor; format: cell-based; conditions: read-out: IC50 OX1
# Summary of the method: (§1)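 CHO cells expressing human orexin-1 or orexin-2 receptor were seeded overnight, preincubated with antagonist for 120 min, then stimulated with agonist in a FLIPR Tetra.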
# human orexin-2 receptor = human orexin-2 receptor (Homo sapiens (Human), UniProt O43614); experiment: In vitro intracellular calcium measurements (FLIPR), antagonistic activity on orexin-2 receptor; format: cell-based; conditions: read-out: IC50 OX2
# Summary of the method: as §1
# [1] = CHO cells expressing human orexin-1 receptor, FLIPR, 3 nM orexin-A agonist, 120 min antagonist incubation, geometric mean if determined several times
# [2] = CHO cells expressing human orexin-2 receptor, FLIPR, 3 nM orexin-A agonist, 120 min antagonist incubation, geometric mean if determined several times
# Chain of human orexin-1 receptor (O43613 whole entry): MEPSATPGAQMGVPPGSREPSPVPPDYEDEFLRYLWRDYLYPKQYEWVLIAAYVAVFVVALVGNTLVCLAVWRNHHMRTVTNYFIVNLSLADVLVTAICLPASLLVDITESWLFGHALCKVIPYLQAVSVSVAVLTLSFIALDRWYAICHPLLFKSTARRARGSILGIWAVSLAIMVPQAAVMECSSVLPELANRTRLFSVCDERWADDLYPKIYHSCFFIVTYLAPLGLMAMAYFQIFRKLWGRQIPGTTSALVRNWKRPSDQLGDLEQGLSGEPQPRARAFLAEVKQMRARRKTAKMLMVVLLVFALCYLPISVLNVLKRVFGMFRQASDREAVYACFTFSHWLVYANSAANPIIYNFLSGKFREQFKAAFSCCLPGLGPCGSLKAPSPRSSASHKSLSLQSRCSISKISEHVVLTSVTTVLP
# Chain of CYP3A4 (P08684 whole entry): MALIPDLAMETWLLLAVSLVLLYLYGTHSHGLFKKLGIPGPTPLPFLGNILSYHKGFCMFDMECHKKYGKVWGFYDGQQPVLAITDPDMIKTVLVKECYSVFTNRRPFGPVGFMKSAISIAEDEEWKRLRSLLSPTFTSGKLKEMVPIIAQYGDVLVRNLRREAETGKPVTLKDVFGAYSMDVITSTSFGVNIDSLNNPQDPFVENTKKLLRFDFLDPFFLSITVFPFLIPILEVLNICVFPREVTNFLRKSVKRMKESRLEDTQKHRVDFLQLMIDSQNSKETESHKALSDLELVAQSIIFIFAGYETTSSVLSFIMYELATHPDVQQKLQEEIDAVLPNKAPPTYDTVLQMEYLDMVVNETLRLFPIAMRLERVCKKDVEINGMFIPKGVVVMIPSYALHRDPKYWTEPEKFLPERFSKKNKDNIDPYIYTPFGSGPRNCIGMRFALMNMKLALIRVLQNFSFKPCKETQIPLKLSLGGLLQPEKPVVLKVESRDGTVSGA
# Chain of human orexin-2 receptor (O43614 whole entry): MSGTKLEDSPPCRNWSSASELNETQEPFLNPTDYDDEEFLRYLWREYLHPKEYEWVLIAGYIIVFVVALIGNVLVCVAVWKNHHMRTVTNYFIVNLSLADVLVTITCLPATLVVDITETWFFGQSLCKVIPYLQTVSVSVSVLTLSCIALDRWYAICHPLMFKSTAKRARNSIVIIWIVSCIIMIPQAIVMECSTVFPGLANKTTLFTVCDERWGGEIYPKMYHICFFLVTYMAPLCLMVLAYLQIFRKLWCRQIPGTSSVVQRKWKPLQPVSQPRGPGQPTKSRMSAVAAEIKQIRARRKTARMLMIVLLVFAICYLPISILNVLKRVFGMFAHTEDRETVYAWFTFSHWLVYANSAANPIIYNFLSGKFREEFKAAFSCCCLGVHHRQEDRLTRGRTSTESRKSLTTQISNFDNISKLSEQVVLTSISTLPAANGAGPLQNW
IC50 (CYP3A4),IC50 (human orexin-1 receptor; [1]),IC50 (human orexin-2 receptor; [2]),SMILES,IC50 (human orexin-1 receptor),IC50 (human orexin-2 receptor)
24000 nM,13 nM,447 nM,"C[C@@H]1CN(C(=O)c2cccc(Cl)c2-n2nccn2)[C@H](Cc2cc(-c3ncccn3)ccc2F)CO1 [Example 154, (3-Chloro-2-[1,2,3]triazol-2-yl-phenyl)-[(2R,5R)-5-(2-fluoro-5-pyrimidin-2-yl-benzyl)-2-methyl-morpholin-4-yl]-methanone]",–,–
17000 nM,6 nM,490 nM,"O=C(c1cc(Cl)ccc1-n1nccn1)N1CCOC[C@H]1Cc1cc(-c2ncccn2)ccc1F [Example 159, (5-Chloro-2-[1,2,3]triazol-2-yl-phenyl)-[(R)-3-(2-fluoro-5-pyrimidin-2-yl-benzyl)-morpholin-4-yl]-methanone]",–,–
33000 nM,16 nM,655 nM,"O=C(c1cccc(Cl)c1-n1nccn1)N1CCOC[C@H]1Cc1cc(-c2ncccn2)ccc1F [Example 161, (3-Chloro-2-[1,2,3]triazol-2-yl-phenyl)-[(R)-3-(2-fluoro-5-pyrimidin-2-yl-benzyl)-morpholin-4-yl]-methanone]",–,–
20000 nM,14 nM,1300 nM,"Cc1ccc(C(=O)N2C[C@@H](C)OC[C@H]2Cc2cc(-c3cccnn3)ccc2F)c(-n2nccn2)c1 [Example 165, [(2R,5R)-5-(2-Fluoro-5-pyridazin-3-yl-benzyl)-2-methyl-morpholin-4-yl]-(4-methyl-2-[1,2,3]triazol-2-yl-phenyl)-methanone]",–,–
19000 nM,13 nM,1400 nM,"Cc1ccc(C(=O)N2CCOC[C@H]2Cc2cc(-c3cccnn3)ccc2F)c(-n2nccn2)c1 [Example 166, [(R)-3-(2-Fluoro-5-pyridazin-3-yl-benzyl)-morpholin-4-yl]-(4-methyl-2-[1,2,3]triazol-2-yl-phenyl)-methanone]",–,–
29000 nM,5 nM,2440 nM,"Cc1ccc(C(=O)N2CCOC[C@H]2Cc2cc(-n3nccn3)ccc2Cl)c(-n2nccn2)c1C [Example 169, [(R)-3-(2-Chloro-5-[1,2,3]triazol-2-yl-benzyl)-morpholin-4-yl]-(3,4-dimethyl-2-[1,2,3]triazol-2-yl-phenyl)-methanone]",–,–
9800 nM,7 nM,451 nM,"O=C(c1ccc(Cl)cc1-n1nccn1)N1CCOC[C@H]1Cc1cc(-n2nccn2)ccc1Cl [Example 170, [(R)-3-(2-Chloro-5-[1,2,3]triazol-2-yl-benzyl)-morpholin-4-yl]-(4-chloro-2-[1,2,3]triazol-2-yl-phenyl)-methanone]",–,–
13000 nM,10 nM,675 nM,"O=C(c1cccc(Cl)c1-n1nccn1)N1CCOC[C@H]1Cc1cc(-n2nccn2)ccc1Cl [Example 171, [(R)-3-(2-Chloro-5-[1,2,3]triazol-2-yl-benzyl)-morpholin-4-yl]-(3-chloro-2-[1,2,3]triazol-2-yl-phenyl)-methanone]",–,–
23000 nM,3 nM,93 nM,"C[C@@H]1CN(C(=O)c2cccc(Cl)c2-n2nccn2)[C@H](Cc2cccc(-n3nccn3)c2)CO1 [Example 172, (3-Chloro-2-[1,2,3]triazol-2-yl-phenyl)-[(2R,5R)-2-methyl-5-(3-[1,2,3]triazol-2-yl-benzyl)-morpholin-4-yl]-methanone]",–,–
21000 nM,16 nM,455 nM,"C[C@@H]1CN(C(=O)c2cccc(Cl)c2-n2nccn2)[C@H](Cc2cc(-n3nccn3)ccc2F)CO1 [Example 173, (3-Chloro-2-[1,2,3]triazol-2-yl-phenyl)-[(2R,5R)-5-(2-fluoro-5-[1,2,3]triazol-2-yl-benzyl)-2-methyl-morpholin-4-yl]-methanone]",–,–
50000 nM,8 nM,642 nM,"Cc1ccc(-n2nccn2)c(C(=O)N2CCOC[C@H]2Cc2cc(-c3ncon3)ccc2F)c1 [Example 174, [(R)-3-(2-Fluoro-5-[1,2,4]oxadiazol-3-yl-benzyl)-morpholin-4-yl]-(5-methyl-2-[1,2,3]triazol-2-yl-phenyl)-methanone]",–,–
35000 nM,3 nM,359 nM,"Cc1ccc(C(=O)N2CCOC[C@H]2Cc2cc(-c3ncon3)ccc2F)c(-n2nccn2)c1 [Example 175, [(R)-3-(2-Fluoro-5-[1,2,4]oxadiazol-3-yl-benzyl)-morpholin-4-yl]-(4-methyl-2-[1,2,3]triazol-2-yl-phenyl)-methanone]",–,–
22000 nM,11 nM,240 nM,"O=C(c1cc(Cl)ccc1-n1nccn1)N1CCOC[C@H]1Cc1cc(-c2ncon2)ccc1F [Example 176, (5-Chloro-2-[1,2,3]triazol-2-yl-phenyl)-[(R)-3-(2-fluoro-5-[1,2,4]oxadiazol-3-yl-benzyl)-morpholin-4-yl]-methanone]",–,–
24000 nM,2 nM,165 nM,"O=C(c1ccc(Cl)cc1-n1nccn1)N1CCOC[C@H]1Cc1cc(-c2ncon2)ccc1F [Example 178, (4-Chloro-2-[1,2,3]triazol-2-yl-phenyl)-[(R)-3-(2-fluoro-5-[1,2,4]oxadiazol-3-yl-benzyl)-morpholin-4-yl]-methanone]",–,–
29000 nM,2 nM,34 nM,"Cc1cc(C(=O)N2CCOC[C@H]2Cc2cc(-c3ncon3)ccc2F)c(-n2nccn2)cc1C [Example 179, (4,5-Dimethyl-2-[1,2,3]triazol-2-yl-phenyl)-[(R)-3-(2-fluoro-5-[1,2,4]oxadiazol-3-yl-benzyl)-morpholin-4-yl]-methanone]",–,–
36000 nM,19 nM,830 nM,"O=C(c1cccc(Cl)c1-n1nccn1)N1CCOC[C@H]1Cc1cc(-c2ncon2)ccc1F [Example 180, (3-Chloro-2-[1,2,3]triazol-2-yl-phenyl)-[(R)-3-(2-fluoro-5-[1,2,4]oxadiazol-3-yl-benzyl)-morpholin-4-yl]-methanone]",–,–
36000 nM,11 nM,1570 nM,"Cc1ccc(C(=O)N2CCOC[C@H]2Cc2cc(-c3ncon3)ccc2F)c(-n2nccn2)c1C [Example 181, (3,4-Dimethyl-2-[1,2,3]triazol-2-yl-phenyl)-[(R)-3-(2-fluoro-5-[1,2,4]oxadiazol-3-yl-benzyl)-morpholin-4-yl]-methanone]",–,–
19000 nM,2 nM,96 nM,"C[C@@H]1CN(C(=O)c2cc(Cl)ccc2-n2nccn2)[C@H](Cc2cccc(-n3nccn3)c2)CO1 [Example 184, (5-Chloro-2-[1,2,3]triazol-2-yl-phenyl)-[(2R,5R)-2-methyl-5-(3-[1,2,3]triazol-2-yl-benzyl)-morpholin-4-yl]-methanone]",–,–
20000 nM,2 nM,39 nM,"C[C@@H]1CN(C(=O)c2ccc(Cl)cc2-n2nccn2)[C@H](Cc2cccc(-n3nccn3)c2)CO1 [Example 185, (4-Chloro-2-[1,2,3]triazol-2-yl-phenyl)-[(2R,5R)-2-methyl-5-(3-[1,2,3]triazol-2-yl-benzyl)-morpholin-4-yl]-methanone]",–,–

SMILES,IC50 (CYP3A4),IC50 (human orexin-1 receptor; [1]),IC50 (human orexin-2 receptor; [2]),IC50 (human orexin-1 receptor),IC50 (human orexin-2 receptor)
"Cc1ccc(C(=O)N2CCOC[C@H]2Cc2cccc(-n3nccn3)c2F)c(-n2nccn2)c1 [Example 183, [(R)-3-(2-Fluoro-3-[1,2,3]triazol-2-yl-benzyl)-morpholin-4-yl]-(4-methyl-2-[1,2,3]triazol-2-yl-phenyl)-methanone]",> 50000 nM,–,–,15 nM,2130 nM
